Results: patent US8932597B2 (priority 2008, dated 2015)

What was measured:
HuM2e antibody 23K12 = format: binding, human
[1] = system: anti-M2 human monoclonal antibody Z3G1; format: binding

Row | Substance | Signal (peptides that bind to 23K21 and 8I10) (HuM2e antibody 23K12) | Signal (peptides that show specific binding to Z3G1) [1] | Signal (peptides that bind to Z3G1) [1]
1 | 389 (SLLTEVETPYRNEWGCRCNDSSD; epitope peptide) [compound 389] | 1350 | 2303 | –
2 | 409 (SLLTEVETPIRNEWGCRCNDKSD; epitope peptide) [compound 409] | 898 | – | 2484
3 | 670 (SLLTEVETWIRNEWGCRCNDSSD; epitope peptide) [compound 670] | 736 | 2146 | –
4 | 615 (SLLTEVETPIRNEWGCDCNDSSD; epitope peptide) [compound 615] | 810 | 2207 | –
5 | 522 (SLLTMVETPIRNEWGCRCNDSSD; epitope peptide) [compound 522] | 1011 | 1244 | –
6 | 286 (CSLLTEVGMSLLTCV; epitope peptide) [compound 286] | 2311 | – | 2768
7 | 341 (CSLLTEVCSLLTEC; epitope peptide) [compound 341] | 1644 | 1122 | –
8 | 509 (SLLTEVETPIYNEWGCRCNDSSD; epitope peptide) [compound 509] | 1049 | 2296 | –
9 | 570 (MCLLTEVGCSLLTEV; epitope peptide) [compound 570] | 875 | – | 2717
10 | 662 (SLLTEVETPIRNFWGCRCNDSSD; epitope peptide) [compound 662] | 747 | 2417 | –
11 | 356 (SLLTEVETPIRNEWGCRCNDSDD; epitope peptide) [compound 356] | 1553 | – | 2181
12 | 533 (CSLLTEVGSCLCEC; epitope peptide) [compound 533] | 963 | 2625 | –
13 | 452 (SLLTEVGSLLTEC; epitope peptide) [compound 452] | 1326 | 1862 | –
14 | 553 (SLLTEVTTPIRNEWGCRCNDSSD; epitope peptide) [compound 553] | 909 | 2102 | –
15 | 537 (SLLTEVEPPIRNEWGCRCNDSSD; epitope peptide) [compound 537] | 953 | 2522 | –
16 | 705 (SLLTEVKTPIRNEWGCRCNDSSD; epitope peptide) [compound 705] | 712 | 1905 | –
17 | 377 (SLKTEVETPIRNEWGCRCNDSSD; epitope peptide) [compound 377] | 1434 | 1453 | –
18 | 311 (SLLTEVGCLLTEV; epitope peptide) [compound 311] | 1859 | 1924 | –
19 | 685 (SLLTEVETPIRNVWGCRCNDSSD; epitope peptide) [compound 685] | 728 | 2281 | –
20 | 571 (SLLTEVETPIRNLWGCRCNDSSD; epitope peptide) [compound 571] | 870 | 2415 | –
21 | 534 (SLLTEVEKPIRNEWGCRCNDSSD; epitope peptide) [compound 534] | 963 | 2505 | –
22 | 598 (SLLTEVETPIRNEWGCRKNDSSD; epitope peptide) [compound 598] | 835 | 2435 | –
23 | 658 (SLLTEVYTPIRNEWGCRCNDSSD; epitope peptide) [compound 658] | 751 | 1092 | –
24 | 363 (MSLLTECGCSLLTEV; epitope peptide) [compound 363] | 1500 | – | 1235
25 | 450 (SLLTEVEHPIRNEWGCRCNDSSD; epitope peptide) [compound 450] | 1331 | 2241 | –
26 | 622 (SLLTEVETPIRMEWGCRCNDSSD; epitope peptide) [compound 622] | 805 | 2385 | –
27 | 691 (SLLTEVETPIRNEWGCRMNDSSD; epitope peptide) [compound 691] | 722 | 2356 | –
28 | 588 (SLLTEVETPIRNEWGCRCNCSSD; epitope peptide) [compound 588] | 848 | – | 2505
